Experimental data reported in US9192554B2, “Use of chicoric acid and lactic bacterium in food supplement for regulating skin pigmentation” (Nestec S.A., priority 2010, dated 2015).

Test system: B16 murine melanocytes
Assay: Production of melanin by B16 murine melanocyte cell line
Format: cell-based
Conditions: 72 hours, Kojic acid at 400 μg/mL
Description: In order to evaluate the potential beneficial effect of ingredients towards skin de- or pro-pigmentation we used 2D culture of murine melanocytes (B16) and we performed 2 tests: 1-assessment of melanin production and 2-assessment of tyrosinase production. 1. The Cell Culture Conditions. • B16 cells were cultured in DMEM 1 g/L glucose without phenol red supplemented with 10% foetal calf serum, in a humidified chamber at 37° C. and containing 5% CO2. 2. The Production of Melanin by B16 Murine Melanocyte Cell Line. • Cells were incubated with the selected ingredients or the test references (Kojic acid at 400 μg/mL) for 72 hours, in the presence or absence of NDP-MSH an analog of MSH. The total quantity of melanin (extracellular and intracellular) was evaluated by measurement of the optical density at 405 nm of each sample against melanin standards in presence or in absence of NDP-MSH. Chicoric acid has been pre-treated with La-1 [(spray dried culture Lactobacillus Johnsonii CNCM I-1225, 1.19E10 cfu/g) for 24 hours in a thermomixer at 40° C., under shaking conditions. After incubation, samples have been centrifuged 5 minutes at 3000 g. After this treatment the probiotic as such is not present anymore in the sample however the presence of its metabolites can't be excluded.

For O=c1cc(CO)occ1O [Kojic acid], the “Melanin content (effect in words)” value was “decrease in melanin content”.
